The record followed here is patent publication US8138334B2, “Substituted oxa-diaza-spiro-[5.5]-undecanone derivatives and their use as neurokinin antagonists” (Janssen Pharmaceutica N.V., priority 2005, dated 2012).

SMILES strings stand for the structures.

The target in one data set is NK1 (Homo sapiens, UniProt P25103). The data set can be described thus: Signal transduction (ST), intracellular Ca++ FLIPR, NK1. The following applies: antagonist, read-out: NK1 pIC50 (converted). It counts as cell-based. As for the experimental part: This test evaluates in vitro functional NK1 antagonistic activity. For the measurements of intracellular Ca^++ concentrations the cells were grown on 96-well (black wall/transparent bottom) plates from Costar for 2 days until they reached confluence. The cells were loaded with 2 μM Fluo3 in DMEM containing 0.1% BSA and 2.5 mM probenecid for 1 h at 37° C. They were washed 3× with a Krebs buffer (140 mM NaCl, 1 mM MgCl2×6H2O, 5 mM KCl, 10 mM glucose, 5 mM HEPES; 1.25 mM CaCl2; pH 7.4) containing 2.5 mM probenecid and 0.1% BSA (Ca^++-buffer). The cells were preincubated with a concentration range of antagonists for 20 min at RT and Ca^++-signals after addition of the agonists were measured in a Fluorescence Image Plate Reader (FLIPR from Molecular Devices, Crawley, England). The peak of the Ca^++-transient was considered as the relevant signal and the mean values of corresponding wells were analysed as described below.
NK1, sequence (P25103 whole entry): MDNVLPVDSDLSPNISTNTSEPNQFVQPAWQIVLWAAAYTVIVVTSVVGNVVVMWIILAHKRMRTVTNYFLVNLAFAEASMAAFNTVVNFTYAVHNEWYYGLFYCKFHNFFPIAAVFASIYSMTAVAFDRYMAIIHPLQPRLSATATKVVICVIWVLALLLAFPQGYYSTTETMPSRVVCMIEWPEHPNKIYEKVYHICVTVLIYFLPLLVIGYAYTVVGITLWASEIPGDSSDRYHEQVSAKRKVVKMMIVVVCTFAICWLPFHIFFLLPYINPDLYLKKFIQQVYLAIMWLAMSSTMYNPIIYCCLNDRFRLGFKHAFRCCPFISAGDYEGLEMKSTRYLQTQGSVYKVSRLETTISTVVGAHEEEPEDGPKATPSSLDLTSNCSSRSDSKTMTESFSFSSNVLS
The sigmoidal dose response curves were analysed by computerised curve-fitting, using the GraphPad Program. The EC50-value of a compound is the effective dose showing 50% of maximal effect. For mean curves the response to the agonist with the highest potency was normalised to 100%. For antagonist responses the IC50-value was calculated using non-linear regression. […]

Another data set concerns the target T1, NK2 (Homo sapiens, UniProt P21452).
T1 sequence (P21452 1-398): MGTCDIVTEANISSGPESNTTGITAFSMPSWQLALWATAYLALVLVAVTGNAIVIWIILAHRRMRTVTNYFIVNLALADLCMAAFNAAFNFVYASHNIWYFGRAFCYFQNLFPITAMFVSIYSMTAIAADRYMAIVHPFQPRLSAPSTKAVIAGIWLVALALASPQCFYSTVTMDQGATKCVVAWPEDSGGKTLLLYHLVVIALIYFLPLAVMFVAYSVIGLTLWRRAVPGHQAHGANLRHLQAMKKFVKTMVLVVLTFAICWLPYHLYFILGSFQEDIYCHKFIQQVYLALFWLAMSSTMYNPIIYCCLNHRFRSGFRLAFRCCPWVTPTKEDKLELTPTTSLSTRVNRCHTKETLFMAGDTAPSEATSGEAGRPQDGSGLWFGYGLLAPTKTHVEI
The experiment in a line: Signal transduction (ST), intracellular Ca++ FLIPR, NK2. It counts as cell-based. The following applies: antagonist, read-out: NK2 pIC50 (converted).

A further data set concerns the target T2, NK3 (Homo sapiens, UniProt P29371).
T2 sequence (P29371 1-465): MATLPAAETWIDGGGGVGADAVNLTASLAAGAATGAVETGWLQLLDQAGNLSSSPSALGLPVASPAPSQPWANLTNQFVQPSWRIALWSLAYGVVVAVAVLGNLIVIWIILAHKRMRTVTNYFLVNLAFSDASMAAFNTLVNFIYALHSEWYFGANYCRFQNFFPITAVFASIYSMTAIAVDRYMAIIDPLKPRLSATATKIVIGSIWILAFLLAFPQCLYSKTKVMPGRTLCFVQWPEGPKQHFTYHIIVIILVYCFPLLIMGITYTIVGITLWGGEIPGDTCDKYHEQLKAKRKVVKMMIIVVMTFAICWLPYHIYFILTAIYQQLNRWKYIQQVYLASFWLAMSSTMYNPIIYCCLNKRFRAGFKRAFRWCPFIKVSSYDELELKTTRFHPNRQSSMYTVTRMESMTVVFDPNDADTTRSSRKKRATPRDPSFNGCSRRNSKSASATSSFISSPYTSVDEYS
The experiment in a line: Signal transduction (ST), intracellular Ca++ FLIPR, NK3. The settings on record: antagonist, read-out: NK3 pIC50 (converted). It is filed as cell-based.

`CC(C)(C)CN1CCC2(CCN(C3CCN(C(=O)c4cc(C(F)(F)F)cc(C(F)(F)F)c4)C(Cc4ccccc4)C3)CC2)OC1=O` (single isomer, unassigned) [Compound 2.1]: the figures for the IC50 at NK1 and on NK2 were 251 nM and greater than 10000 nM, respectively.
`CC(C)(C)CN1CCC2(CCN(C3CCN(C(=O)c4cc(C(F)(F)F)cc(C(F)(F)F)c4)C(Cc4ccccc4)C3)CC2)OC1=O` (single isomer, unassigned) [Compound 2.2]: the IC50 on NK1 was 63.1 nM; on NK2, 2000 nM; on NK3, 3980 nM.
Taken in the same sequence, the figures for `CCC(CC)CN1CCC2(CCN(C3CCN(C(=O)c4cc(C(F)(F)F)cc(C(F)(F)F)c4)C(Cc4ccccc4)C3)CC2)OC1=O` (single isomer, unassigned) [Compound 2.3] were 398 nM, greater than 10000 nM and 5010 nM.
For `CCC(CC)CN1CCC2(CCN(C3CCN(C(=O)c4cc(C(F)(F)F)cc(C(F)(F)F)c4)C(Cc4ccccc4)C3)CC2)OC1=O` (single isomer, unassigned) [Compound 2.4], in that order: 79.4 nM, 5010 nM and 7940 nM.
With `Cn1cccc1CN1CCC2(CCN(C3CCN(C(=O)c4cc(C(F)(F)F)cc(C(F)(F)F)c4)C(Cc4ccccc4)C3)CC2)OC1=O` (single isomer, unassigned) [Compound 2.9], the IC50 at NK1 is 631 nM; on NK3, 3160 nM.
In the case of `Cn1cccc1CN1CCC2(CCN(C3CCN(C(=O)c4cc(C(F)(F)F)cc(C(F)(F)F)c4)C(Cc4ccccc4)C3)CC2)OC1=O` (single isomer, unassigned) [Compound 2.10], the IC50 on NK1 was 79.4 nM; on NK2, 2000 nM; on NK3 it was 3980 nM.
For `O=C1OC2(CCN1Cc1cccnc1)CCN(C1CCN(C(=O)c3cc(C(F)(F)F)cc(C(F)(F)F)c3)C(Cc3ccccc3)C1)CC2` (single isomer, unassigned) [Compound 2.16], in that order: 398 nM, greater than 10000 nM and 1580 nM.
For `O=C1OC2(CCN1Cc1cccnc1)CCN(C1CCN(C(=O)c3cc(C(F)(F)F)cc(C(F)(F)F)c3)C(Cc3ccccc3)C1)CC2` (single isomer, unassigned) [Compound 2.17], in that order: 100 nM, 2510 nM and 6310 nM.
For the compound `CC(C)(C)C(=O)N1CCC2(CC1)CCN(C1CCN(C(=O)c3cc(C(F)(F)F)cc(C(F)(F)F)c3)C(Cc3ccccc3)C1)C(=O)O2` (stereo not drawn) [Compound 1.3], the IC50 on NK1 was 10 nM; on NK2, 5010 nM; on NK3, 79.4 nM.
Consider `O=C(C1CC1)N1CCC2(CC1)CCN([C@H]1CCN(C(=O)c3cc(C(F)(F)F)cc(C(F)(F)F)c3)[C@H](Cc3ccccc3)C1)C(=O)O2` [Compound 1.4], for which the IC50 on NK1 was 12.6 nM; on NK2 it was 1000 nM; on NK3 it was 126 nM.
Take `O=C(C1CCOC1)N1CCC2(CC1)CCN([C@H]1CCN(C(=O)c3cc(C(F)(F)F)cc(C(F)(F)F)c3)[C@H](Cc3ccccc3)C1)C(=O)O2` (stereo partly drawn) [Compound 1.5]: the IC50 at NK1 is 12.6 nM; on NK2, 7940 nM; at NK3, 251 nM.
With `O=C(C1CCOC1)N1CCC2(CC1)CCN(C1CCN(C(=O)c3cc(C(F)(F)F)cc(C(F)(F)F)c3)C(Cc3ccccc3)C1)C(=O)O2` (stereo not drawn) [Compound 1.6], the melting point (commonly the temperature, or range, at which the solid turns liquid) was found to be 102 °C. Also, the IC50 at NK1 was 25.1 nM.
Regarding `O=C(c1ccoc1)N1CCC2(CC1)CCN(C1CCN(C(=O)c3cc(C(F)(F)F)cc(C(F)(F)F)c3)C(Cc3ccccc3)C1)C(=O)O2` (stereo not drawn) [Compound 1.7], the IC50 was 15.8 nM on NK1, 7940 nM at NK2 and 126 nM on NK3.
`O=C(c1ccoc1)N1CCC2(CC1)CCN(C1CCN(C(=O)c3cc(C(F)(F)F)cc(C(F)(F)F)c3)C(Cc3ccccc3)C1)C(=O)O2` (stereo not drawn) [Compound 1.8] displayed a melting point of 192 °C. Moreover, the IC50 on NK1 is 25.1 nM.
As to `Cc1nnsc1C(=O)N1CCC2(CC1)CCN(C1CCN(C(=O)c3cc(C(F)(F)F)cc(C(F)(F)F)c3)C(Cc3ccccc3)C1)C(=O)O2` (stereo not drawn) [Compound 1.10], the IC50 is 12.6 nM on NK1, 6310 nM at NK2 and 316 nM on NK3.
For `O=C(c1ccccc1)N1CCC2(CC1)CCN(C1CCN(C(=O)c3cc(C(F)(F)F)cc(C(F)(F)F)c3)C(Cc3ccccc3)C1)C(=O)O2` (stereo not drawn) [Compound 1.11], in that order: 31.6 nM, greater than 10000 nM and 794 nM.
`O=C(c1ccccc1)N1CCC2(CC1)CCN(C1CCN(C(=O)c3cc(C(F)(F)F)cc(C(F)(F)F)c3)C(Cc3ccccc3)C1)C(=O)O2` (stereo not drawn) [Compound 1.12] yielded a melting point of 110 °C. Moreover, the IC50 on NK1 is 50.1 nM.
In the case of `O=C(c1cnccn1)N1CCC2(CC1)CCN(C1CCN(C(=O)c3cc(C(F)(F)F)cc(C(F)(F)F)c3)C(Cc3ccccc3)C1)C(=O)O2` (stereo not drawn) [Compound 1.13], the IC50 at NK1 is 50.1 nM; on NK2, 7940 nM; at NK3 it was 1580 nM.
With `O=C1OC2(CCN1CC1CCCCC1)CCN(C1CCN(C(=O)c3cc(C(F)(F)F)cc(C(F)(F)F)c3)C(Cc3ccccc3)C1)CC2` (stereo not drawn) [Compound 2.5], the IC50 on NK1 is 200 nM; at NK2, 5010 nM; on NK3 it was greater than 10000 nM.
For `O=C1OC2(CCN1Cc1ccsc1)CCN(C1CCN(C(=O)c3cc(C(F)(F)F)cc(C(F)(F)F)c3)C(Cc3ccccc3)C1)CC2` (stereo not drawn) [Compound 2.6], in that order: 200 nM, greater than 10000 nM and 2510 nM.
For the compound `O=C1OC2(CCN1Cc1ccsc1)CCN(C1CCN(C(=O)c3cc(C(F)(F)F)cc(C(F)(F)F)c3)C(Cc3ccccc3)C1)CC2` (stereo not drawn) [Compound 2.7], the IC50 on NK1 is 158 nM; on NK2, 3980 nM.
In the case of `O=C1OC2(CCN1Cc1ccoc1)CCN(C1CCN(C(=O)c3cc(C(F)(F)F)cc(C(F)(F)F)c3)C(Cc3ccccc3)C1)CC2` (stereo not drawn) [Compound 2.8], the IC50 is 251 nM on NK1, greater than 10000 nM on NK2 and 6310 nM at NK3.
As to `Cc1ccccc1CN1CCC2(CCN(C3CCN(C(=O)c4cc(C(F)(F)F)cc(C(F)(F)F)c4)C(Cc4ccccc4)C3)CC2)OC1=O` (stereo not drawn) [Compound 2.11], the figures for the IC50 on NK1, at NK2 and at NK3 were 398 nM, greater than 10000 nM and 7940 nM, respectively.
Taken in the same sequence, the figures for `Cc1ccccc1CN1CCC2(CCN(C3CCN(C(=O)c4cc(C(F)(F)F)cc(C(F)(F)F)c4)C(Cc4ccccc4)C3)CC2)OC1=O` (stereo not drawn) [Compound 2.12] were 251 nM, 3980 nM and 5010 nM.
Turning to `O=C1OC2(CCN1Cc1ccc(O)cc1)CCN(C1CCN(C(=O)c3cc(C(F)(F)F)cc(C(F)(F)F)c3)C(Cc3ccccc3)C1)CC2` (stereo not drawn) [Compound 2.15], the IC50 on NK1 is 316 nM; at NK2, greater than 10000 nM; on NK3, 2000 nM.
